Results reported in patent US20040063736A1, “Combination of active ingredients containing alfuzosine and apomorphine” (priority 2001, published 2004).

Test system: hypertensive rats (SHR)
Experiment: Erectile responses (number of erections, intracavernous pressure) in anaesthetised hypertensive rats
Details: for N animals with erections/N animals / Number of erections (mean ± sem): 30 min after infusion
[1] = alfuzosine 3, 10 or 30 μg/kg alone (i.v. infusion)
[2] = Table 2, apomorphine 50 μg/kg alone
[3] = apomorphine 10 μg/kg s.c. + 5% glucose infusion
[4] = apomorphine 20 μg/kg s.c. + 5% glucose infusion
[5] = apomorphine 50 μg/kg s.c. + 5% glucose infusion
[6] = apomorphine 100 μg/kg s.c. + 5% glucose infusion
[7] = apomorphine 250 μg/kg s.c. + 5% glucose infusion

SMILES: COc1cc2nc(N(C)CCCNC(=O)C3CCCO3)nc(N)c2cc1OC (stereo not shown) [Alfuzosine]
- AUC [1]: 0 mmHg · sec
- Duration of erection [1]: 0 s
- n animal with erections/n animal [1]: 0/6
- number of erections [1]: 0
- ΔICP [1]: 0 mmHg
- induction of erections per se (alfuzosine 3 to 100 μg/kg i.v. after vehicle of apomorphine): Neither 5% glucose nor alfuzosine (3 to 100 μg/kg i.v.) was able to induce per se erections

SMILES: CN1CCc2cccc3c2[C@H]1Cc1ccc(O)c(O)c1-3 [Apomorphine]
- AUC [2]: 640 ± 216 mmHg · sec
- Duration of erection [2]: 105 ± 23 s
- n animal with erections/n animal [2]: 9/9
- number of erections [2]: 2.6 ± 0.4
- ΔICP [2]: 29 ± 7 mmHg
- AUC [3]: 0 mmHg · sec
- Duration [3]: 0 s
- ΔICP [3]: 0 mmHg
- N animals with erections/N animals [3]: 0/8
- Number of erections (mean ± sem) [3]: 0
- AUC [4]: 582 ± 172 mmHg · sec
- Duration [4]: 61 ± 7 s
- ΔICP [4]: 41.4 ± 13.9 mmHg
- N animals with erections/N animals [4]: 5/10
- Number of erections (mean ± sem) [4]: 0.5000
- AUC [5]: 640 ± 215 mmHg · sec
- Duration [5]: 105 ± 23 s
- ΔICP [5]: 29.3 ± 6.5 mmHg
- N animals with erections/N animals [5]: 9/9
- Number of erections (mean ± sem) [5]: 2.5556
- AUC [6]: 501 ± 193 mmHg · sec
- Duration [6]: 71 ± 19 s
- ΔICP [6]: 25.5 ± 8.2 mmHg
- N animals with erections/N animals [6]: 9/9
- Number of erections (mean ± sem) [6]: 3.1111
- AUC [7]: 1073 ± 237 mmHg · sec
- Duration [7]: 71 ± 19 s
- ΔICP [7]: 58.6 ± 9.7 mmHg
- N animals with erections/N animals [7]: 6/6
- Number of erections (mean ± sem) [7]: 5.0000
- erectile responses (apomorphine 10-250 μg/kg s.c.): induced concentration-dependent erectile responses
- first dose triggering erections in some animals in comparison to the control group (apomorphine s.c.): 0.02 mg/kg
- first dose which induced at least one erectile event in all the animals (apomorphine s.c.): 0.05 mg/kg
- number of erections (text b79, apomorphine 50 μg/kg alone): 2.6±0.4
